Measurements reported in patent US8183262B2, “Pyridine derivatives as mGluR2 antagonists” (Hoffmann-La Roche Inc., priority 2007, dated 2012).

Tests used:
rat mGlu2 receptor = target: T1, rat mGlu2 receptor (Rattus norvegicus, UniProt P31421); test: [3H]-LY354740 binding on mGlu2 transfected CHO cell membranes; settings: inhibition of 10 nM [3H]-LY354740 binding, membranes of CHO cells transfected with rat mGlu2, room temperature, 1 hour
T1 construct: expressed in transfected cells; membranes prepared
T1 sequence (P31421 19-872): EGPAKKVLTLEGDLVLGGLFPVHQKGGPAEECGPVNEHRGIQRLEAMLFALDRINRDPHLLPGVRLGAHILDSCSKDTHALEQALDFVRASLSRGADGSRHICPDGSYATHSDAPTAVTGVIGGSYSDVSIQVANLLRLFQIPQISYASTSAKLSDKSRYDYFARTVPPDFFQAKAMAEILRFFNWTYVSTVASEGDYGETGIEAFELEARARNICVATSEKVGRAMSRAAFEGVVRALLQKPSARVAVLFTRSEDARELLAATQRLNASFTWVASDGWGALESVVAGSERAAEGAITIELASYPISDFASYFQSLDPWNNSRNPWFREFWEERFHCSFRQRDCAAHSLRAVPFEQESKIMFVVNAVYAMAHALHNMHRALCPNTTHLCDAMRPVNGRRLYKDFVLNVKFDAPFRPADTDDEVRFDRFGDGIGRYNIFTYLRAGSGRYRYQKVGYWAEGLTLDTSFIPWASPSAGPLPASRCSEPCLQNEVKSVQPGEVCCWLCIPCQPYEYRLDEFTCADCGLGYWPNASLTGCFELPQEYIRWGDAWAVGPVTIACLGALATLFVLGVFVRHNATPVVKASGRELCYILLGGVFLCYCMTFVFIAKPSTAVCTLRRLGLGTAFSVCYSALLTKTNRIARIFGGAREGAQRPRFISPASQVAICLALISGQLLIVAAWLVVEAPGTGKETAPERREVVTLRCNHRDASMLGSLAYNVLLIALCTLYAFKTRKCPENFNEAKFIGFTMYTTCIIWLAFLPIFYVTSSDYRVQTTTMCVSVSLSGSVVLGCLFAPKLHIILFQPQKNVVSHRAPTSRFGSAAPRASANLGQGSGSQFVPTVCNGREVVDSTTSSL
Description: [^3H]-LY354740 Binding on mGlu2 Transfected CHO Cell Membranes. Transfection and Cell Culture
cDNA encoding the rat mGlu2 receptor protein in pBluescript II was subcloned into the eukaryotic expression vector pcDNA I-amp from Invitrogen Ltd (Paisley, UK). This vector construct (pcD1mGR2) was co-transfected with a psvNeo plasmid encoding the gene for neomycin resistance, into CHO cells by a modified calcium phosphate method described by Chen & Okayama (1988). The cells were maintained in Dulbecco's Modified Eagle medium with reduced L-glutamine (1 mM final concentration), 36 mg/L L-Proline and 10% dialysed foetal calf serum from Gibco-Invitrogen; the medium was supplemented with 500 microM α-methyl-4-carboxyphenylglycine (MCPG). Selection was made in the presence of G-418 (300 ug/ml final concentration). Clones were identified by reverse transcription of 5 μg total RNA, followed by PCR using mGlu2 receptor specific primers 5′-[…]-3′ and 5′-[…]-3′ in 60 mM Tris HCl (pH 10), 15 mM (NH4)2SO4, 2 mM MgCl2, 25 units/ml Taq Polymerase with 30 cycles annealing at 60° C. for 1 min., extention at 72° C. for 30 s, and 1 min. 95° C. denaturation.
Cells, cultured as above, were harvested and washed three times with cold PBS and frozen at −80° C. The pellet was resuspended in cold 20 mM HEPES-NaOH buffer containing 10 mM EDTA (pH 7.4), and homogenised with a polytron (Kinematica, A G, Littau, Switzerland) for 10 s at 10 000 rpm. After centrifugation for 30 min. at 4° C., the pellet was washed once with cold 20 mM HEPES-NaOH buffer containing 0.1 mM EDTA, (pH 7.4). After a second centrifugation for 30 min. at 4° C. the pellet was resuspended in cold 20 mM HEPES-NaOH buffer containing 0.1 mM EDTA, (pH 7.4). Protein content was measured using the Micro BCA method from Pierce-Perbio (Rockford, Ill., USA) using bovine serum albumin as standard.
After thawing, the membranes were resuspended in cold 50 mM Tris-HCl buffer containing 2 mM MgCl2 (pH 7.4) (binding buffer). The final concentration of the membranes in the assays was 25 μg protein/ml. Inhibition experiments were performed with membranes incubated with 10 nM [^3H]-LY354740 at room temperature, for 1 hour, in presence of various concentrations of the compound to be tested. Following the incubations, membranes were filtered onto Whatmann GF/B glass fiber filters or onto GF/B Unifilter plates and washed 5 times with cold binding buffer. Non specific binding was measured in the presence of 10 μM (2S,2′R,3′R)-2-(2′3′-Dicarboxycyclopropyl)glycine (DCG IV from Tocris, Ellisville, Mo. USA). After transfer of the filters into plastic vials containing 10 ml of Ultima-gold scintillation fluid from Perkin-Elmer (Boston, Mass., USA), the radioactivity was measured by liquid scintillation in a Tri-Carb 2500 TR counter (Packard, Zürich, Switzerland). For 96-Unifilter plates the radioactivity was measured after addition of Microscint 40 scintillation fluid (Perkin Elmer, Boston Mass.) using a TopCount NXT (Packard)
The inhibition curves were fitted with a four parameter logistic equation giving IC50 values, and Hill coefficients.

| SMILES | Ki (rat mGlu2 receptor) [nM] | melting point |
| --- | --- | --- |
| Nc1ncc(-c2cn(-c3nc(-c4cccc(Cl)c4)cc(C(F)(F)F)n3)cn2)cn1 [Example 187, 5-{1-[4-(3-Chloro-phenyl)-6-trifluoromethyl-pyrimidin-2-yl]-1H-imidazol-4-yl}-pyrimidin-2-ylamine] | 13.7 | 281 °C |
| Nc1ccc(-c2cn(-c3cc(C(F)(F)F)cc(-c4ccc(C(F)(F)F)cc4)n3)cn2)cn1 [Example 65, 5-{1-[4-Trifluoromethyl-6-(4-trifluoromethyl-phenyl)-pyridin-2-yl]-1H-imidazol-4-yl}-pyridin-2-ylamine] | 6 | 245 to 247 °C |
| NS(=O)(=O)c1cccc(-c2cccc(-c3cc(-c4ccc(C(F)(F)F)cc4)cc(C(F)(F)F)n3)c2)c1 [Example 244, 3′-[6-Trifluoromethyl-4-(4-trifluoromethyl-phenyl)-pyridin-2-yl]-biphenyl-3-sulfonic acid amide] | 5 | 187 °C |
| O=S(=O)(c1cccc(-c2cc(-c3nc(-c4ccc(C(F)(F)F)cc4)cc(C(F)(F)F)n3)ccn2)c1)N1CCCC1 [Example 390, 2-{2-[3-(Pyrrolidine-1-sulfonyl)-phenyl]-pyridin-4-yl}-4-trifluoromethyl-6-(4-trifluoromethyl-phenyl)-pyrimidine] | 21 | 184 °C |
| Cc1cc(-c2ccc(C(F)(F)F)cc2)cc(-c2cccc(-c3ccc(S(N)(=O)=O)cc3)n2)n1 [Example 73, 4-[6′-Methyl-4′-(4-trifluoromethyl-phenyl)-[2,2′]bipyridinyl-6-yl]-benzenesulfonamide] | 19 | 215 to 227 °C |
| Cc1cc(-c2ccc(C(F)(F)F)cc2)cc(-c2cccc(-c3cnc(N)nc3)n2)n1 [Example 72, 5-[6′-Methyl-4′-(4-trifluoromethyl-phenyl)-[2,2′]bipyridinyl-6-yl]-pyrimidin-2-ylamine] | 56 | 219 to 222 °C |
| Nc1cc(-c2noc(-c3nc(-c4ccc(Cl)cc4)cc(C(F)(F)F)n3)n2)ccn1 [Example 8, 4-{5-[4-(4-Chloro-phenyl)-6-trifluoromethyl-pyrimidin-2-yl]-[1,2,4]oxadiazol-3-yl}-pyridin-2-ylamine] | 100 | 223.5 °C |
| Cc1cc(-c2ccc(C(F)(F)F)cc2)cc(-c2ccnc(-c3cccc(NS(C)(=O)=O)c3)c2)n1 [Example 318, N-{3-[6-Methyl-4-(4-trifluoromethyl-phenyl)-[2,4′]bipyridinyl-2′-yl]-phenyl}-methanesulfonamide] | 4 | 196 °C |
| Cc1cc(-c2ccc(C(F)(F)F)cc2)cc(-c2ccnc(-c3cccc(S(=O)(=O)N4CCN(C)CC4)c3)c2)n1 [Example 350, 6-Methyl-2′-[3-(4-methyl-piperazine-1-sulfonyl)-phenyl]-4-(4-trifluoromethyl-phenyl)-[2,4′]bipyridinyl] | 22 | 180 °C (dec.) |
| OCc1ccc(-c2cccc(-c3nc(-c4ccc(C(F)(F)F)cc4)cc(C(F)(F)F)n3)c2)cc1 [Example 114, {3′-[4-Trifluoromethyl-6-(4-trifluoromethyl-phenyl)-pyrimidin-2-yl]-biphenyl-4-yl}-methanol] | 6 | 171 °C |
| NS(=O)(=O)c1ccc(-c2noc(-c3nc(-c4ccc(C(F)(F)F)cc4)cc(C(F)F)n3)n2)cc1 [Example 35, 4-{5-[4-Difluoromethyl-6-(4-trifluoromethyl-phenyl)-pyrimidin-2-yl]-[1,2,4]oxadiazol-3-yl}-benzenesulfonamide] | 31 | 307 °C |
| Cc1cc(-c2ccc(Cl)cc2)nc(-n2cnc(-c3cccc(S(C)(=O)=O)c3)c2)n1 [Example 210, 4-(4-Chloro-phenyl)-2-[4-(3-methanesulfonyl-phenyl)-imidazol-1-yl]-6-methyl-pyrimidine] | 23 | 233 °C |
